In paper PMC7252524 (Journal of medicinal chemistry, 2019):

Assay: Mouse PK analysis, large intestine
Assay type: in vivo

Structure (SMILES): COc1ccc(S(=O)(=O)N2CCC(N3CCC(C)CC3)CC2)cc1 [compound 6, 1’-((4-Methoxyphenyl)sulfonyl)-4-methyl-1,4’-bipiperidine]
- Large Intestinal PK AUClast (ip, 10 mg/kg): 737,709 ng·min/g

Structure (SMILES): CC1CCN(C2CCN(S(=O)(=O)c3ccc(Cl)cc3)CC2)CC1 [compound 16, 1’-((4-Chlorophenyl)sulfonyl)-4-methyl-1,4’-bipiperidine]
- Large Intestinal PK AUClast (iv, 10 mg/kg): 262,874 ng·min/g

Structure (SMILES): CC1CCN(C2CCN(S(=O)(=O)c3ccc(OC(F)F)cc3)CC2)CC1 [compound 22, 1’-((4-(Difluoromethoxy)phenyl)sulfonyl)-4-methyl-1,4’-bipiperidine]
- Large Intestinal PK AUClast (ip, 10 mg/kg): 790,425 ng·min/g
- Large Intestinal PK AUClast (iv, 5 mg/kg): 511,878 ng·min/g
- Large Intestinal PK AUClast (po, 20 mg/kg): 890,969 ng·min/g

Structure (SMILES): C#CCC1CCN(C2CCN(S(=O)(=O)c3ccc(Br)cc3)CC2)CC1 [compound 92, 1’-((4-Bromophenyl)sulfonyl)-4-(prop-2-yn-1-yl)-1,4’-bipiperidine]
- Large Intestinal PK AUClast (ip, 10 mg/kg): 633,289 ng·min/g
- Large Intestinal PK AUClast (iv, 10 mg/kg): 559,037 ng·min/g
